Assay results published in patent US20200339691A1, “PROTEINACEOUS MOLECULES AND USES THEREFOR” (priority 2018, published 2020).
Where a SMILES comes first, the peptide text is derived from it. The star is where a group is joined. Myristoyl = CCCCCCCCCCCCCC(=O)*

Experiments:
[1] = test system: CD44^hiCD24^lo CSCs in MDA-MB-231 cells; experiment: FACS analysis of CD44^hiCD24^lo cancer stem cells in MDA-MB-231 cells treated with P1 analogues; format: cell-based, human; conditions: for Inhibition of CSCs (%) Repeat 1 / Inhibition of CSCs (%) Repeat 2 / Inhibition of CSCs (%) Repeat 3 / CD44^hiCD24^lo CSCs (%) / COI, Live Single CD44^hiCD24^lo CSCs (Cell Count) / Average Inhibition of CSCs (%) / CD44^hiCD24^lo CSCs (%) Repeat 1 / CD44^hiCD24^lo CSCs (%) Repeat 2 / CD44^hiCD24^lo CSCs (%) Repeat 3: 50 μM peptide, 48 hours; for CD44^hiCD24^lo CSCs (%) / COI, Live Single CD44^hiCD24^lo CSCs (Cell Count): n = 1; for Average Inhibition of CSCs (%) / CD44^hiCD24^lo CSCs (%) Repeat 1 / CD44^hiCD24^lo CSCs (%) Repeat 2 / CD44^hiCD24^lo CSCs (%) Repeat 3: n = 3
Protocol: Analogues of P1 (Table 6) were designed and synthesized in accordance with the procedure of Example 5. The ability of these analogues to inhibit cancer stem cells was determined using FACS analysis on MDA-MB-231 cells, which constitutively contain approximately 90% CD44^hiCD24^lo cancer stem cells, treated with the peptides.
(§1) Non-adherent cells were removed during the washing steps.

MDA-MB-231 cells = format: cell-based, human; conditions: for COI (Cell Count) / COI, Live Single Cells (Cell Count) / COI, Single (Cell Count) / Total Cell Count: 50 μM peptide, 48 hours, n = 1; for killing of total MDA-MB-231 cells: not only the CSCs
From the text: as §1

[2] = test system: CD44^hiCD24^lo CSCs in MCF7 cells; experiment: FACS analysis of CD44^hiCD24^lo CSCs in MCF7 cells; format: cell-based, human; conditions: 50 μM peptide, 48 hours
Protocol: (§2) P1 Analogues were synthesized in accordance with the procedure of Example 5. 4×10^4 MDA-MB-231 cells or 1×10^4 induced or non-induced MCF7 cells were seeded in a 12 well plate with 1 mL complete media overnight. Induced MCF7 cells were prepared by stimulating cells with PMA/TGF-β and incubating for 12 hours. Cells were treated with 50 μM test peptide (dissolved in water) for 48 hours. Cells were then washed twice with 1 mL PBS and harvested by trypsinisation. Non-adherent cells were removed during the washing steps. Adherent cells were collected, and were subsequently stained with anti-human CD44, CD24 and Hoechst 33342 antibodies on ice for 30 mins. FACS was performed on BD FACS LSRII to measure the percentage of CD44^hiCD24^lo CSCs by dividing CD44^hiCD24^lo events by total live cell counts (Hoechst negative population) (as described in Fillmore and Kuperwasser (2007) Breast Cancer Res, 9: 303). The percentage of viable cells was calculated by dividing total live cell events by total single cells as described previously (Siemann and Keng (1986), Cancer Res, 46: 3556-3559).

MCF7 cells = conditions: MCF7 cells, 50 μM peptide, 48 hours
Protocol: as §2

induced MCF7 cells = experiment: FACS CSC inhibition in induced MCF7 cells; format: cell-based, human; conditions: induced MCF7 cells (PMA/TGF-β), 50 μM peptide, 48 hours
Protocol: as §2
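Throughout, for COI, Live Single Cells (Cell Count): live means Hoechst-negative events among single cells.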

CCCCCCCCCCCCCC(=O)N[C@H](C(=O)N[C@@H](Cc1ccccc1)C(=O)N[C@H](C(=O)N[C@@H](Cc1ccccc1)C(=O)N[C@@H](CCCNC(=N)N)C(=O)N[C@@H](CC(C)C)C(=O)N[C@@H](CCCNC(=N)N)C(=O)N[C@@H](C)C(=O)NCC(=O)N[C@@H](CCCNC(=N)N)C(=O)N[C@@H](CCSC)C(=O)N[C@@H](CCSC)C(=O)N[C@@H](CC(=O)O)C(=O)N[C@H](C(=O)N[C@@H](CCCCN)C(=O)N[C@@H](CCCCN)C(N)=O)C(C)C)[C@@H](C)CC)[C@@H](C)O [Peptide 2815309, Myristoyl-TFIFRLRAGRMMDVKK-NH2] (Myristoyl-TFIFRLRAGRMMDVKK-NH2)
Inhibition of CSCs (%) Repeat 1 [1]: 100.00%
Inhibition of CSCs (%) Repeat 2 [1]: 100.00%
Inhibition of CSCs (%) Repeat 3 [1]: 100.00%
CD44^hiCD24^lo CSCs (%) [1]: 0.00%
COI, Live Single CD44^hiCD24^lo CSCs (Cell Count) [1]: 1
Average Inhibition of CSCs (%) [1]: 100.00%
CD44^hiCD24^lo CSCs (%) Repeat 1 [1]: 0.00%
CD44^hiCD24^lo CSCs (%) Repeat 2 [1]: 0.00%
CD44^hiCD24^lo CSCs (%) Repeat 3 [1]: 0.00%
ability to inhibit cancer stem cells (CD44^hiCD24^lo CSCs) ([1]; in words): retained the ability to inhibit cancer stem cells
COI (Cell Count) (MDA-MB-231 cells): 74
COI, Live Single Cells (Cell Count) (MDA-MB-231 cells): 1
COI, Single (Cell Count) (MDA-MB-231 cells): 71
Total Cell Count (MDA-MB-231 cells): 4158
killing of total MDA-MB-231 cells (MDA-MB-231 cells): killed the majority of the total MDA-MB-231 cells
CD44^hiCD24^lo CSC % [2]: 3.35%
COI/Single Cells/Live/CD44^hiCD24^lo CSCs Count [2]: 134
COI Count (MCF7 cells): 5425
COI/Single Cell Count (MCF7 cells): 4124
COI/Single Cells/Live Count (MCF7 cells): 4000
Total Count (MCF7 cells): 10000
CSC inhibition (%) (induced MCF7 cells): 52.46%

CCCCCCCCCCCCCC(=O)N[C@H](C(=O)N[C@@H](Cc1ccccc1)C(=O)N[C@H](C(=O)N[C@@H](Cc1ccccc1)C(=O)N[C@@H](CCCNC(=N)N)C(=O)N[C@@H](CC(C)C)C(=O)N[C@@H](CCCNC(=N)N)C(=O)N[C@@H](CCCCN)C(=O)NCC(=O)N[C@@H](CCCNC(=N)N)C(=O)N[C@@H](C)C(=O)N[C@@H](CCSC)C(=O)N[C@@H](CC(=O)O)C(=O)N[C@H](C(=O)N[C@@H](CCCCN)C(=O)N[C@@H](CCCCN)C(N)=O)C(C)C)[C@@H](C)CC)[C@@H](C)O [Peptide 2815312, Myristoyl-TFIFRLRKGRAMDVKK-NH2] (Myristoyl-TFIFRLRKGRAMDVKK-NH2)
Inhibition of CSCs (%) Repeat 1 [1]: 100.00%
Inhibition of CSCs (%) Repeat 2 [1]: 100.00%
Inhibition of CSCs (%) Repeat 3 [1]: 100.00%
CD44^hiCD24^lo CSCs (%) [1]: 0.00%
COI, Live Single CD44^hiCD24^lo CSCs (Cell Count) [1]: 0
Average Inhibition of CSCs (%) [1]: 100.00%
CD44^hiCD24^lo CSCs (%) Repeat 1 [1]: 0.00%
CD44^hiCD24^lo CSCs (%) Repeat 2 [1]: 0.00%
CD44^hiCD24^lo CSCs (%) Repeat 3 [1]: 0.00%
COI (Cell Count) (MDA-MB-231 cells): 9
COI, Live Single Cells (Cell Count) (MDA-MB-231 cells): 6
COI, Single (Cell Count) (MDA-MB-231 cells): 7
Total Cell Count (MDA-MB-231 cells): 2993
killing of total MDA-MB-231 cells (MDA-MB-231 cells): killed the majority of the total MDA-MB-231 cells
CD44^hiCD24^lo CSC % [2]: 3.28%
COI/Single Cells/Live/CD44^hiCD24^lo CSCs Count [2]: 142
COI Count (MCF7 cells): 5333
COI/Single Cell Count (MCF7 cells): 4517
COI/Single Cells/Live Count (MCF7 cells): 4331
Total Count (MCF7 cells): 10000
CSC inhibition (%) (induced MCF7 cells): 53.47%

CCCCCCCCCCCCCC(=O)N[C@H](C(=O)N[C@@H](Cc1ccccc1)C(=O)N[C@H](C(=O)N[C@@H](Cc1ccccc1)C(=O)N[C@@H](CCCNC(=N)N)C(=O)N[C@@H](CC(C)C)C(=O)N[C@@H](CCCNC(=N)N)C(=O)N[C@@H](CCCCN)C(=O)NCC(=O)N[C@@H](CCCNC(=N)N)C(=O)N[C@@H](CCSC)C(=O)N[C@@H](CCSC)C(=O)N[C@@H](C)C(=O)N[C@H](C(=O)N[C@@H](CCCCN)C(=O)N[C@@H](CCCCN)C(N)=O)C(C)C)[C@@H](C)CC)[C@@H](C)O [Peptide 2815314, Myristoyl-TFIFRLRKGRMMAVKK-NH2] (Myristoyl-TFIFRLRKGRMMAVKK-NH2)
Inhibition of CSCs (%) Repeat 1 [1]: 100.00%
Inhibition of CSCs (%) Repeat 2 [1]: 100.00%
Inhibition of CSCs (%) Repeat 3 [1]: 100.00%
CD44^hiCD24^lo CSCs (%) [1]: 0.00%
COI, Live Single CD44^hiCD24^lo CSCs (Cell Count) [1]: 0
Average Inhibition of CSCs (%) [1]: 100.00%
CD44^hiCD24^lo CSCs (%) Repeat 1 [1]: 0.00%
CD44^hiCD24^lo CSCs (%) Repeat 2 [1]: 0.00%
CD44^hiCD24^lo CSCs (%) Repeat 3 [1]: 0.00%
COI (Cell Count) (MDA-MB-231 cells): 10
COI, Live Single Cells (Cell Count) (MDA-MB-231 cells): 2
COI, Single (Cell Count) (MDA-MB-231 cells): 9
Total Cell Count (MDA-MB-231 cells): 5611
killing of total MDA-MB-231 cells (MDA-MB-231 cells): killed the majority of the total MDA-MB-231 cells
CD44^hiCD24^lo CSC % [2]: 2.75%
COI/Single Cells/Live/CD44^hiCD24^lo CSCs Count [2]: 145
COI Count (MCF7 cells): 6564
COI/Single Cell Count (MCF7 cells): 5443
COI/Single Cells/Live Count (MCF7 cells): 5276
Total Count (MCF7 cells): 10000
CSC inhibition (%) (induced MCF7 cells): 61.00%

CCCCCCCCCCCCCC(=O)N[C@@H](CC(C)C)C(=O)N[C@@H](CCCCN)C(=O)N[C@@H](Cc1ccccc1)C(=O)N[C@H](C(=O)N[C@@H](Cc1ccccc1)C(=O)N[C@@H](CCCNC(=N)N)C(=O)N[C@@H](CC(C)C)C(=O)N[C@@H](CCCNC(=N)N)C(=O)N[C@@H](CCCCN)C(=O)NCC(=O)N[C@@H](CCCNC(=N)N)C(=O)N[C@@H](CCSC)C(=O)N[C@@H](CCSC)C(=O)N[C@@H](CC(=O)O)C(=O)N[C@H](C(=O)N[C@@H](CCCCN)C(=O)N[C@@H](CCCCN)C(N)=O)C(C)C)[C@@H](C)CC [Peptide 2853805, Myristoyl-LKFIFRLRKGRMMDVKK-NH2] (Myristoyl-LKFIFRLRKGRMMDVKK-NH2)
Inhibition of CSCs (%) Repeat 1 [1]: 100.00%
Inhibition of CSCs (%) Repeat 2 [1]: 100.00%
Inhibition of CSCs (%) Repeat 3 [1]: 100.00%
CD44^hiCD24^lo CSCs (%) [1]: 0.00%
COI, Live Single CD44^hiCD24^lo CSCs (Cell Count) [1]: 0
Average Inhibition of CSCs (%) [1]: 100.00%
CD44^hiCD24^lo CSCs (%) Repeat 1 [1]: 0.00%
CD44^hiCD24^lo CSCs (%) Repeat 2 [1]: 0.00%
CD44^hiCD24^lo CSCs (%) Repeat 3 [1]: 0.00%
COI (Cell Count) (MDA-MB-231 cells): 52
COI, Live Single Cells (Cell Count) (MDA-MB-231 cells): 1
COI, Single (Cell Count) (MDA-MB-231 cells): 32
Total Cell Count (MDA-MB-231 cells): 3221
killing of total MDA-MB-231 cells (MDA-MB-231 cells): killed the majority of the total MDA-MB-231 cells
CD44^hiCD24^lo CSC % [2]: 2.50%
COI/Single Cells/Live/CD44^hiCD24^lo CSCs Count [2]: 108
COI Count (MCF7 cells): 5356
COI/Single Cell Count (MCF7 cells): 4637
COI/Single Cells/Live Count (MCF7 cells): 4320
Total Count (MCF7 cells): 10000
CSC inhibition (%) (induced MCF7 cells): 64.52%
